Target in one assay: not listed separately
The assay can be described thus: Inhibition of Lysosomal alpha-glucosidase in Aspergillus niger.
Settings: not given
The IC50 is the concentration that gives 50% inhibition. Low readings indicate greater potency, high ones weaker potency. Take `OC[C@H]1NC[C@@H](O)[C@H]1O`: the IC50 is 0.19 µM.

The target in a further assay is T1, Lysosomal alpha-glucosidase (Homo sapiens, UniProt P10253). The assay can be described thus: Inhibition of human GAA using 4-methylumbelliferyl-alpha-D-glucopyranoside as substrate preincubated for 45 min followed by substrate addition and measured after 30 min by fluorescence spectrophotometer analysis.
Settings: not given
The Ki is the dissociation constant of the complex between target and ligand, obtained from inhibition or displacement. The low end stands for higher affinity, the high end for lower affinity. `CCCCCCC[C@]1(CO)NC[C@H](O)[C@@H](O)[C@@H]1O` had an inhibitory constant (Ki) of 0.0047 µM. That is a single-digit nanomolar value.

`CCCCCN1C[C@H](O)[C@@H](O)[C@H](O)[C@H]1CO` displayed a Ki of 0.21 µM.

In turn, `CCN1C[C@H](O)[C@@H](O)[C@H](O)[C@H]1CO` yielded an inhibition constant (Ki) of 0.21 µM. Consider `CCCCCCN1C[C@H](O)[C@@H](O)[C@H](O)[C@H]1CO`, for which the Ki is 0.13 µM. Against the preceding compound, the Ki is about 1.6-fold lower. Still for that read-out and setting: with `CCCN1C[C@H](O)[C@@H](O)[C@H](O)[C@H]1CO` the figure was 0.36 µM; with `CCCCCC[C@]1(CO)NC[C@H](O)[C@@H](O)[C@@H]1O`, 0.0061 µM. On the same count and under the same terms, with `CCC[C@]1(CO)NC[C@H](O)[C@@H](O)[C@@H]1O` the figure was 0.059 µM; with `CCCCCCC[C@@]1(CO)NC[C@H](O)[C@@H](O)[C@@H]1O`, 2.5 µM; with `CC[C@]1(CO)NC[C@H](O)[C@@H](O)[C@@H]1O`, 6 µM. As for `CCCCC[C@]1(CO)NC[C@H](O)[C@@H](O)[C@@H]1O`, the Ki was 0.019 µM.

Regarding `CCCC[C@]1(CO)NC[C@H](O)[C@@H](O)[C@@H]1O`, the Ki stood at 0.037 µM. Turning to `C[C@]1(CO)NC[C@H](O)[C@@H](O)[C@@H]1O`, the affinity, expressed as Ki, was 37 µM. On to `CCCCCCCN1C[C@H](O)[C@@H](O)[C@H](O)[C@H]1CO`, for which the affinity corresponds to a Ki of 0.095 µM.

`CCCCN1C[C@H](O)[C@@H](O)[C@H](O)[C@H]1CO` registered a Ki of 0.2 µM.

Target in another assay: not listed separately
Description: Inhibition of Maltase (unknown origin). Details: species or system Homo sapiens.
Settings: not given
In the case of `OC[C@H]1NC[C@@H](O)[C@@H]1O`, the IC50 is 55 µM.

The target of the next assay is Sucrase-isomaltase, intestinal (Homo sapiens, UniProt P14410). Description: Inhibition of Sucrase (unknown origin).
Chain of Sucrase-isomaltase, intestinal (P14410 2-1007 limits assumed): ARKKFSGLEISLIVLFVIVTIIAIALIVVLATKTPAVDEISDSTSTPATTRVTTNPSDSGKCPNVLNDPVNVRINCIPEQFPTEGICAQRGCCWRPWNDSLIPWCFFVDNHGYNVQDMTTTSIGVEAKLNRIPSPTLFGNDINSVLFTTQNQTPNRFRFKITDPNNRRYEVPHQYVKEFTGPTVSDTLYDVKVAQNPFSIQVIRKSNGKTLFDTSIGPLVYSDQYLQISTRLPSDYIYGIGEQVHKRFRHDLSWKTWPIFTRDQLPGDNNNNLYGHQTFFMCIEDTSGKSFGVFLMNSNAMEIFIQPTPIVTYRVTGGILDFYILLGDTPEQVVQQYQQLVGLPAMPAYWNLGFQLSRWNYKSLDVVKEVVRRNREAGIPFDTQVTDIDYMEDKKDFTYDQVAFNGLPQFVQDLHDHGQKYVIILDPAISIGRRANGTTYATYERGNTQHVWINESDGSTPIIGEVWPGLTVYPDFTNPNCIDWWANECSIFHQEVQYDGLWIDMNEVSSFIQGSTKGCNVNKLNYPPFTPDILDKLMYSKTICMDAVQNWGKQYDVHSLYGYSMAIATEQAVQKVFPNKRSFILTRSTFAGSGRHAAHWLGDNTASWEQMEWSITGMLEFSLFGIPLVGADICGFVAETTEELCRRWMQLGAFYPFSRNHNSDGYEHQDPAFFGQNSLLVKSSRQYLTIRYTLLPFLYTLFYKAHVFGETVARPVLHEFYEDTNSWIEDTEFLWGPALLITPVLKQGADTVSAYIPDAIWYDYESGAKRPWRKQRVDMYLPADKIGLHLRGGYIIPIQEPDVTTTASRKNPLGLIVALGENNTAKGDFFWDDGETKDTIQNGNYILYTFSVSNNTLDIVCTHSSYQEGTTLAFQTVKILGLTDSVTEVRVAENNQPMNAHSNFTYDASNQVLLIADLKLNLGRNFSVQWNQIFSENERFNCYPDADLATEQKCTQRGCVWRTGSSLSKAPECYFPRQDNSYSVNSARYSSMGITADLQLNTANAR
Chain of Sucrase-isomaltase, intestinal (P14410 1008-1827 limits assumed): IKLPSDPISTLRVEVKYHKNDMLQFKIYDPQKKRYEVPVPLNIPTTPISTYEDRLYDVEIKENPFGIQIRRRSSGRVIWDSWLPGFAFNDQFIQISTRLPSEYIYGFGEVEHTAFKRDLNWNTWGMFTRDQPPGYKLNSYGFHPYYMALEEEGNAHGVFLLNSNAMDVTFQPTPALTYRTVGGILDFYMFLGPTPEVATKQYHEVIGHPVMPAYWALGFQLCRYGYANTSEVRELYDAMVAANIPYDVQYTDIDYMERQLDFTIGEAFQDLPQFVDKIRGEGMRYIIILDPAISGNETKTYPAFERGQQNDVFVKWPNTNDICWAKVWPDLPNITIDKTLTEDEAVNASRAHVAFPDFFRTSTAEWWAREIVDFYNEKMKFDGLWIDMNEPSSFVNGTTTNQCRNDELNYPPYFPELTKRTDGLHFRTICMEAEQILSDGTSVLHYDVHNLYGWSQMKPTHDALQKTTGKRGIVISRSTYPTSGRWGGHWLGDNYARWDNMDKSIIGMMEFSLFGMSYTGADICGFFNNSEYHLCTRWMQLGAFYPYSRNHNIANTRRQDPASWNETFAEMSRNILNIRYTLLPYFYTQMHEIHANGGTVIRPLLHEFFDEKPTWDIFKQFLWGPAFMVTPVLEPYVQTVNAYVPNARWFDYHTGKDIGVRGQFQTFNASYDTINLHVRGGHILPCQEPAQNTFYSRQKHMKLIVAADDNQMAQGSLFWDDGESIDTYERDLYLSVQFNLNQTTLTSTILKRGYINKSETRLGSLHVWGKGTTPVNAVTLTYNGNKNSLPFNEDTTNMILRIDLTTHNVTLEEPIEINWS
Settings: not given
For the compound `OC[C@@H]1NC[C@H](O)[C@H]1O`, half-maximal inhibition (IC50) required 1 µM.

Target in the next assay: not listed separately
Description: Inhibition of Penicillium decumbens Alpha-L-rhamnosidase.
Settings: not given
As to `O[C@@H]1[C@@H]2[C@@H](O)[C@H](O)[C@@H](O)CN2C[C@@H]1O`, the IC50 amounted to 530 µM.

Target in another assay: not listed separately
Description: Inhibition of Endoplasmic reticulum alpha-glucosidase (unknown origin). On the set-up: species or system Homo sapiens.
Settings: not given
Compound `OC[C@H]1NC[C@H](O)[C@@H](O)[C@@H]1O` [DUVOGLUSTAT] registered an IC50 of 1.4 µM.

Target in another assay: not listed separately
The assay can be described thus: Inhibition of Glycosidase (unknown origin). Details: species or system Homo sapiens.
Settings: not given
The compound `C[C@@]1(O)CN[C@H](CO)[C@@H]1O` came in with an IC50 of 12 µM.

Compound `C[C@@]1(O)[C@H](O)CN[C@@H]1CO` gave an IC50 of 0.8 µM. This IC50 lies about 15-fold lower than the previous one. `C[C@]1(O)CN2C[C@H](O)[C@H](O)[C@@H]2[C@@H](O)[C@@H]1O` displayed an IC50 of 0.2 µM. Same read-out and setting: then `C[C@]1(CO)NC[C@H](O)[C@@H](O)[C@@H]1O`, with 1 µM; and `C[C@@H]1NC[C@@H](O)[C@H](O)[C@]1(C)O`, with 50 µM.

Target in the next assay: not listed separately
The assay can be described thus: Inhibition of rat intestinal maltase.
Settings: not given
With `C[C@]1(CO)NC[C@@H](O)[C@@H]1O`, the IC50 came to 0.74 µM.

The next assay concerns the target T1, Lysosomal alpha-glucosidase. The following applies: dose 10.0 µM.
Description: Stabilization of recombinant human GAA using 4-methylumbelliferyl-alpha-D-glucopyranoside as substrate assessed as relative fluorescence intensity by measuring midpoint temperature protein denaturation at 10 uM by thermal shift assay (Rvb = 58.6 degC)
Turning to `CCCC[C@]1(CO)NC[C@H](O)[C@@H](O)[C@@H]1O`, the Tm stood at 70.2 °C. For `C[C@]1(CO)NC[C@H](O)[C@@H](O)[C@@H]1O`, the Tm worked out at 69.5 °C.

Values taken from ChEMBL document CHEMBL5038656, “5-C-Branched Deoxynojirimycin: Strategy for Designing a 1-Deoxynojirimycin-Based Pharmacological Chaperone with a Nanomolar Affinity for Pompe Disease” (J Med Chem, 2022).
